Laboratory results published in ChEMBL document CHEMBL5465560, “Selectivity Literature for EUbOPEN Chemogenomic Library” (2024).
Blank lines part the entries; values can stand above or below the molecule they belong to.

Assays:
Histamine H1 receptor = Histamine H1 receptor (Homo sapiens, UniProt P35367); experiment: Selectivity interaction (Eurofins CEREP Diversity Profile (receptors and ion channels)) EUB0000279b HRH1; conditions: at 10 µM
[1] = biological target: LIM domain kinase 2 (Homo sapiens) (UniProt P53671); experiment: Selectivity interaction (Ambit KINOMEscan and KiNATiv profiling in Jurkat cells) EUB0000090b LIMK2; assay type: cell-based; conditions: at 1 µM
[2] = biological target: T1, Rhodopsin kinase GRK1 (Homo sapiens) (UniProt Q15835); experiment: Selectivity interaction (KinomeScan (DiscoverX)) EUB0000655a GRK1; conditions: at 10 µM
T1 sequence (whole entry): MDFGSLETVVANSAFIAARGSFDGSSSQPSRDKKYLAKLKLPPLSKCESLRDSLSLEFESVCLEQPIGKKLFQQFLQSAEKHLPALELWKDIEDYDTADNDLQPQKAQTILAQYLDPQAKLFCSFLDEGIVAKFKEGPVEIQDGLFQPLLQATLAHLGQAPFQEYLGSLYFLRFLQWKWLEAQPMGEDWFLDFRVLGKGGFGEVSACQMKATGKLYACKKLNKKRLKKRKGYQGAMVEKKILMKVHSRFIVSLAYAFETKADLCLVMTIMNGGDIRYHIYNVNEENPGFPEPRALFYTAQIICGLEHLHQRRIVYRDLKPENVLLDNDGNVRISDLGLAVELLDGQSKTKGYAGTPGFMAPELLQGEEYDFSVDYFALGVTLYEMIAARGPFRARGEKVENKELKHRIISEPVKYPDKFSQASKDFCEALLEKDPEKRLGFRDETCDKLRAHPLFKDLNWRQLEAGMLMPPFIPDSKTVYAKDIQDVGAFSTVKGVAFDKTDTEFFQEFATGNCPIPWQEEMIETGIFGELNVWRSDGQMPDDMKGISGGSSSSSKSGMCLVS

[3] = biological target: TGF-beta receptor type-2 (Homo sapiens) (UniProt P37173); experiment: Selectivity interaction (KinomeScan (DiscoverX)) EUB0000618a TGFBR2; conditions: at 10 µM
[4] = biological target: T2, Cyclin-dependent kinase 11A (Homo sapiens) (UniProt Q9UQ88); experiment: Selectivity interaction (ActivX KiNativ screen (ex vivo kinase selectivity in human PBMCs)) EUB0001619a CDK11A; assay type: cell-based; conditions: PBMC, at 1 µM
T2 sequence (whole entry): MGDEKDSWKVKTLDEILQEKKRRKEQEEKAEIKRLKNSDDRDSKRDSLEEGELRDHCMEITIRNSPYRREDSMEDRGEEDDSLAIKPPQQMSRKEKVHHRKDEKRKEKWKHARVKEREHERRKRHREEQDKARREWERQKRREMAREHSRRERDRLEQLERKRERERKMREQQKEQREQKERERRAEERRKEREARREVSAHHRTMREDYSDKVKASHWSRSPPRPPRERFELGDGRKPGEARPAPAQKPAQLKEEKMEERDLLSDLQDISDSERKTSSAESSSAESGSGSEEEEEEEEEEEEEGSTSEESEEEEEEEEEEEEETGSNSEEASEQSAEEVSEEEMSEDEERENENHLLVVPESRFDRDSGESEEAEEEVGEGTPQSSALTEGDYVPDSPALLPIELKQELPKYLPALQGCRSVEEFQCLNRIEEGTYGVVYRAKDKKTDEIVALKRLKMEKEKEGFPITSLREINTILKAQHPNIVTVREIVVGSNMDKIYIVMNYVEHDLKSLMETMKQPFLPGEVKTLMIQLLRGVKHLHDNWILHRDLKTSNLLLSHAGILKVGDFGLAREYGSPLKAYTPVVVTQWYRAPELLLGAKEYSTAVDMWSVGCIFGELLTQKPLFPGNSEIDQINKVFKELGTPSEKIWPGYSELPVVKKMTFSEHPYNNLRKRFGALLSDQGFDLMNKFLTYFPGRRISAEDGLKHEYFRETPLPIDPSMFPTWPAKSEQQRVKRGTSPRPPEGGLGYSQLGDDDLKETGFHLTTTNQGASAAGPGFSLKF

[5] = biological target: MAP/microtubule affinity-regulating kinase 3 (Homo sapiens) (UniProt P27448); experiment: Selectivity interaction (KinomeScan (DiscoverX)) EUB0000045b MARK3
[6] = biological target: T3, Dual specificity mitogen-activated protein kinase kinase 4 (Homo sapiens) (UniProt P45985); experiment: Selectivity interaction (Upstate Kinase Profiler service (Millipore)) EUB0000056c MAP2K4; conditions: at 1 µM
T3 sequence (whole entry): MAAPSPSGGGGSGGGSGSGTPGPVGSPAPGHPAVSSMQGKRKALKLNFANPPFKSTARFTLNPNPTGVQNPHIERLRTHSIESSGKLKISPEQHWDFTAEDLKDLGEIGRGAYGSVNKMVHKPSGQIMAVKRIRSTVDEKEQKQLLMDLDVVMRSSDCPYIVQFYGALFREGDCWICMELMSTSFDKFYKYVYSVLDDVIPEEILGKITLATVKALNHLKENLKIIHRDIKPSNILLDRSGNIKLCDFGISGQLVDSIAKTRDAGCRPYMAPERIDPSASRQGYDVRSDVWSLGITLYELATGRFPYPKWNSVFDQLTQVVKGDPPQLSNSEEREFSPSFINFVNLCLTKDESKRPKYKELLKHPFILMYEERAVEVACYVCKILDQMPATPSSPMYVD

Glucocorticoid receptor = Glucocorticoid receptor (Homo sapiens, UniProt P04150); experiment: Selectivity interaction (Glucocorticoid receptor binding assay, human recombinant ) EUB0000877a NR3C1
Sequence of Glucocorticoid receptor (P04150 whole entry): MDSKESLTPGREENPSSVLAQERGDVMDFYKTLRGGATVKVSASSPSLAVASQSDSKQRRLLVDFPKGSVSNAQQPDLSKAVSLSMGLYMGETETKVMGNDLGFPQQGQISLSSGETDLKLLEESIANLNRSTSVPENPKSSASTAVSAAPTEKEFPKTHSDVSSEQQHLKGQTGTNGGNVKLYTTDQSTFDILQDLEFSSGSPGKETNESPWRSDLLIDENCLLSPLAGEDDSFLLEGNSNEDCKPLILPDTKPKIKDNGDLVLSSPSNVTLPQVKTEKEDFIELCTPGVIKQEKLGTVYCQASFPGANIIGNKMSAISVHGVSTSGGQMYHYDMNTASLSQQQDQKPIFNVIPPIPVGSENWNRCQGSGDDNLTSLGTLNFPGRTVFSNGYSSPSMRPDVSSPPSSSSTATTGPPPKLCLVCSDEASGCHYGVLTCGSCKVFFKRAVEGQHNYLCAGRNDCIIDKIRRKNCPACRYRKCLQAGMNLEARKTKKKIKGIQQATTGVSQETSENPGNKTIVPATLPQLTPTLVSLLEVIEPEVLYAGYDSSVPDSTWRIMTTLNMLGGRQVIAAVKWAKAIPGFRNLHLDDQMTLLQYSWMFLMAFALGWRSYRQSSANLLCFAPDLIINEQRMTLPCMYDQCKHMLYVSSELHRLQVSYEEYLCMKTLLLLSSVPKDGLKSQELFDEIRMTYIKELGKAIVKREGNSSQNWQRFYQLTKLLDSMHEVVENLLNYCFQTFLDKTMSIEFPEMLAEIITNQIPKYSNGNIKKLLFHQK

Sequence of MAP/microtubule affinity-regulating kinase 3 (Homo sapiens) (P27448 whole entry, looked up): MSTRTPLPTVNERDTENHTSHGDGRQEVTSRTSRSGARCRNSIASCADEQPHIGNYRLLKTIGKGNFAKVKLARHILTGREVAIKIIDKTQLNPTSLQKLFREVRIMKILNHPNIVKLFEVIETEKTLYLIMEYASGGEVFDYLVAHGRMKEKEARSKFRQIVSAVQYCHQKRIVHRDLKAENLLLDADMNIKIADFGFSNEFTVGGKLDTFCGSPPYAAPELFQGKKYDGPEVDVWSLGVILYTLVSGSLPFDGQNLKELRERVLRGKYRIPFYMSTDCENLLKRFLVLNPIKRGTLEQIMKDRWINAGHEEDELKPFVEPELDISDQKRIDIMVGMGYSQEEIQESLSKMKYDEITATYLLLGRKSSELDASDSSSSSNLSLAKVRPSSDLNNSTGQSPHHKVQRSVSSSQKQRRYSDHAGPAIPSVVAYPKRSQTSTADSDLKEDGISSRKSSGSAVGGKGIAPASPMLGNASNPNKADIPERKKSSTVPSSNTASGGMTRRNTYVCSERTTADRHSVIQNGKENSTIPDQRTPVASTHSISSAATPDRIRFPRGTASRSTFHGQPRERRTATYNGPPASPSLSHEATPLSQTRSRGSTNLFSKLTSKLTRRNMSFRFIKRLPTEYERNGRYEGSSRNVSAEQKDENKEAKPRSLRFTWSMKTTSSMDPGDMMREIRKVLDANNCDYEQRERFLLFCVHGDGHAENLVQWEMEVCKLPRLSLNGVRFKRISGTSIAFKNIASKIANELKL
Sequence of LIM domain kinase 2 (Homo sapiens) (P53671 whole entry, looked up, the tested form may be a part): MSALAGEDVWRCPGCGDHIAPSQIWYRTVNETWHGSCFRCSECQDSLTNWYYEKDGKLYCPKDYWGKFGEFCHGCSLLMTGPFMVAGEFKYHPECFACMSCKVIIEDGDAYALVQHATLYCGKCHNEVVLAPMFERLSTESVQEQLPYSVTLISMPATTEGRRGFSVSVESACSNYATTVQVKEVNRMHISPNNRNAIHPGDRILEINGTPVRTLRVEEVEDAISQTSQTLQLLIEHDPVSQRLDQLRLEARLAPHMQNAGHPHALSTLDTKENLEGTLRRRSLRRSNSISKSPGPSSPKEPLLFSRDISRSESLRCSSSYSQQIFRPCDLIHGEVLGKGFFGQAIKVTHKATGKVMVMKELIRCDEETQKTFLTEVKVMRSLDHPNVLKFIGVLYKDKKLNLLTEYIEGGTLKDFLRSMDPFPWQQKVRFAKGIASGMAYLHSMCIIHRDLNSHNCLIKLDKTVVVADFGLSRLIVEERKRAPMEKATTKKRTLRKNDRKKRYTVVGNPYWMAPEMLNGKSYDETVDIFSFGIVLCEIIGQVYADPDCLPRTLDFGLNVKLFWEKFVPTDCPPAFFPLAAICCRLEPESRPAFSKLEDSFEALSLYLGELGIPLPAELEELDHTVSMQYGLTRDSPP
Sequence of Histamine H1 receptor (P35367 whole entry, the tested form may be a part): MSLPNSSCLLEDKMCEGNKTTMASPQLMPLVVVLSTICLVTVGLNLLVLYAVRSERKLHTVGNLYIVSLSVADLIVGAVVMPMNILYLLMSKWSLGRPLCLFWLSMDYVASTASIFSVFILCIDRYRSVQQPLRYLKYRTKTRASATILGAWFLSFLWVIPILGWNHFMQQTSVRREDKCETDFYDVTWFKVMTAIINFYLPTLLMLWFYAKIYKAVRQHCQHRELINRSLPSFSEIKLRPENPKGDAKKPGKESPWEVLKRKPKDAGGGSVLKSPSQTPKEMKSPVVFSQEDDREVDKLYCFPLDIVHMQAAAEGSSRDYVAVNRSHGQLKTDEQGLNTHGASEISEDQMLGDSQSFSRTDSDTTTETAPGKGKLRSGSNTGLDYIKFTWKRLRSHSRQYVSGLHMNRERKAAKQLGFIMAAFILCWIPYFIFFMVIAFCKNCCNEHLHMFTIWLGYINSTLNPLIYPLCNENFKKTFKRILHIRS
Sequence of TGF-beta receptor type-2 (Homo sapiens) (P37173 whole entry): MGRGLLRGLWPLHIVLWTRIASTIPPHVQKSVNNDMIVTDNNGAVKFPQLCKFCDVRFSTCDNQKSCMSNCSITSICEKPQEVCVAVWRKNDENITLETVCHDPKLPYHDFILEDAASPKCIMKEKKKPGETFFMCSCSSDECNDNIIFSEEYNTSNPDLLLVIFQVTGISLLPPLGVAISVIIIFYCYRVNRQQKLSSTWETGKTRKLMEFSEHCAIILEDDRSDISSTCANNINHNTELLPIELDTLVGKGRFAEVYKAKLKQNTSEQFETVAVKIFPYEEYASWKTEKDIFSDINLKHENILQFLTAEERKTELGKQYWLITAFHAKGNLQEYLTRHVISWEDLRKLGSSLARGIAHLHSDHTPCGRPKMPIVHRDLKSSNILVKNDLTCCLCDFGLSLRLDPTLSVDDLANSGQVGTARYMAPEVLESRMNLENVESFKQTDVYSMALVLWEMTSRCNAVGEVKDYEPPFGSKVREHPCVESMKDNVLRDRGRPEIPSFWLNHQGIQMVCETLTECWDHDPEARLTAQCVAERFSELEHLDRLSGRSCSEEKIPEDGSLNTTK

% of control (Histamine H1 receptor): 107%
SMILES: CC(=O)c1cc(-c2ccccc2OCC2CC2)c2ncccn12

SMILES: CN(C)C/C=C/C(=O)Nc1ccc(C(=O)N2CCCC(Nc3ncc(Cl)c(-c4c[nH]c5ccccc45)n3)C2)cc1 (centres undefined)
% of control [1]: 95%

SMILES: CN(C)CCOc1ccc(-c2nc(-c3ccncc3)c(-c3ccc4c(c3)CC/C4=N\O)[nH]2)cc1
% of control [2]: 91%

SMILES: O[C@H]1CC[C@H](Nc2ncc3nc(Nc4c(F)cc(F)cc4F)n([C@H]4CCOC4)c3n2)CC1
% of control [3]: 71%

SMILES: N#Cc1cccc(-c2c[nH]c3ncnc(N4CCOCC4)c23)c1
% of inhibition [4]: 36%

SMILES: C=CC(=O)Nc1cc(-n2c(=O)ccc3cnc4ccc(-c5ccc(NS(C)(=O)=O)cc5)cc4c32)ccc1C
% of control ([5]; at 1 µM): 75%
% of control ([5]; at 10 µM): 97%

% of inhibition [6]: 19%
SMILES: Cc1ccc(-c2ccc3c(ccc4sc5c(c43)NC[C@@H](C)NC5=O)n2)cn1

IC50 (Glucocorticoid receptor): > 30 µM
SMILES: CCC(=O)N1CC[C@H](Nc2ncnc3c2CN(c2cnc(OC)c(C(F)(F)F)c2)CC3)C1 [LENIOLISIB]
